Source: patent publication US6790629B2 (The Regents of the University of California, priority 1997, dated 2004)

Experiments:
[1] = target: T1, VR1 (Rattus norvegicus, UniProt O35433); test: Whole-cell two-electrode voltage clamp of VR1-expressing Xenopus oocytes (vanilloid agonists and antagonists); format: cell-based; conditions: for recovery of current response following agonist removal: washout; for Hill coefficient: from agonist concentration-response analysis in VR1-expressing oocytes
T1 construct: open reading frame encoding a protein of 838 amino acids; expressed in transfected cells; host or cells: Xenopus laevis oocytes injected with VR1 cRNA
Method: Briefly, cRNA transcripts were synthesized from Not1-linearized VR1 cDNA templates using T7 RNA polymerase 17. Defolliculated Xenopus laevis oocytes were injected with 0.5-5 ng VR1 cRNA. Four to seven days after injection, two electrode voltage clamp recording was performed (Ehold=−60 mV for IC50 curve and thermal stimulation experiments, and […] for all other experiments) using a Geneclamp 500 amplifier (Axon Instruments) and a MacLab A/D converter (Maclab). The recording chamber was perfused at a rate of 2 ml/min with frog ringers solution containing (mM) 90 NaCl; 1.0 KCl, 2.4 NaHCO3, 0.1 BaCl2, 1.0 MgCl2, and 10 HEPES, pH 7.6. at room temperature. Prior to performing the store-operated current assays, oocytes were incubated for 1-2 hrs in calcium-free, barium-free frog ringers solution containing 1 mM EGTA and 1 μM Thapsigargin. During voltage clamp recording, these oocytes were intermittently exposed to frog ringer's solution containing 2 mM Ca2+ and no EGTA to detect calcium-dependent currents (15 second pulses at 2 minute intervals) (Petersen et al. 1995 Biochem J. 311:4144).
VR1 was expressed in Xenopus oocytes as described above (Example 3), except that CaCl2 (2 mM) was used in place of BaCl2 when generating the capsazepine inhibition curve. […] Membrane currents were recorded in the whole cell voltage clamp configuration (Vhold=−40 mV).

[2] = target: T1, VR1; test: Two-electrode voltage clamp of VR1-injected oocytes: capsaicin, heat, heat plus ruthenium red; format: cell-based; conditions: n=5; for mean inward current response ± s.e.m.: Vhold=-60 mV
Method: (§1) To determine whether VR1 could mediate similar responses to heat in a different cellular environment, heat activation of VR1 was tested in the oocyte system. Oocytes injected with either VR1 cRNA or water were subjected to two-electrode voltage-clamp (Vhold=−60 mV) while the temperature of the perfusing buffer was raised from 22.7° C. to the level indicated, then held constant for 60 sec. (VR1, n =8; water, n=6 independent cells).
(§2) The current tracings shown in FIG. 17 were generated from representative VR1- or water-injected oocytes (Vhold=−60 mV) during successive applications of the indicated stimuli.

[3] = target: T1, VR1; test: Whole-cell patch clamp of VR1-transfected HEK293 cells, desensitization of capsaicin-evoked current; format: cell-based
Method: Patch-clamp recordings were carried out with transiently transfected HEK293 cells at 22° C. Standard bath solution for whole-cell recordings contained (mM) 140 NaCl, 5 KCl, 2 MgCl2, 2 CaCl2, 10 HEPES, 10 glucose, pH 7.4 (adjusted with NaOH). In calcium-free bath solution, CaCl2 was removed and 5 mM EGTA was added.
Bath solution for outside-out patch recordings and pipette solution for inside-out patch recordings contained (mM) 140 NaCl, 10 HEPES, pH 7.4 (adjusted with NaOH). Bath solution for inside-out patch recordings and pipette solutions for outside-out patch recordings and ion substitution experiments contained: (mM) 140 NaCl, 10 HEPES, 5 EGTA, pH 7.4 (adjusted with NaOH). Pipette solution for whole-cell recordings contained (mM) 140 CsCl (or 130 CsAspartate and 10 NaCl), 5 EGTA, 10 HEPES, pH 7.4 (adjusted with CsOH).
Whole-cell recording data were sampled at 20 kHz and filtered at 5 kHz for analysis (Axopatch 200 amplifier with pCLAMP software, Axon Instruments). Single-channel recording data were sampled at 10 kHz and filtered at 1 kHz. Permeability ratios for monovalent cations to Na (PX/PNa) were calculated as follows:

[4] = target: T1, VR1; test: Hydrogen ion potentiation of capsaicin response in VR1-expressing oocytes; format: cell-based; conditions: 10 μM capsaicin
Text: To address this possibility, the effects of hydrogen ions on the cloned vanilloid receptor were examined using the oocyte expression system. […] The pH of the bath solution was changed during the experiment (as indicated by the horizontal bars in FIG. 13).

[5] = target: T2, VRRP-1 (Rattus norvegicus, UniProt Q9WUD2); test: Activation of VRRP-1 by capsaicin
T2 sequence (Q9WUD2 1-761): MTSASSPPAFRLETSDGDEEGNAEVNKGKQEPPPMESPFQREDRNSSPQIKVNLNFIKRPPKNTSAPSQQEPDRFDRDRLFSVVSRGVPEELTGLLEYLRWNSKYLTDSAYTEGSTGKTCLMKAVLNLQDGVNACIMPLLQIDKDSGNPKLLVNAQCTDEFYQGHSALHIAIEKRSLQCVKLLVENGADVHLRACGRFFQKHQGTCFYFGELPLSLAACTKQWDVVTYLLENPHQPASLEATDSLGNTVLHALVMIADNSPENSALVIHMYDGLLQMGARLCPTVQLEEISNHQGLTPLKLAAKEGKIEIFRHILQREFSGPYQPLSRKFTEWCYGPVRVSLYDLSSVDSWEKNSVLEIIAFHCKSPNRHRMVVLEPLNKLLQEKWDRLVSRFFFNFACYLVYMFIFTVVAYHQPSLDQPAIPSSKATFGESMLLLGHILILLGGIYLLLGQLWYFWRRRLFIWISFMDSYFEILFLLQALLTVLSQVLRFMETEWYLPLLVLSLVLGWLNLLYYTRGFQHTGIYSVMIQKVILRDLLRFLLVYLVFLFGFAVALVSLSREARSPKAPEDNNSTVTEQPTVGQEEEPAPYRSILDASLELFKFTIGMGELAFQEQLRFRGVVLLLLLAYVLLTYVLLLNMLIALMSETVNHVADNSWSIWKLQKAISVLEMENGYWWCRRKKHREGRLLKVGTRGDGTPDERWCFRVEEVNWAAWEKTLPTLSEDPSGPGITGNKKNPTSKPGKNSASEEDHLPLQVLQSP

[6] = system: chick orthologue of rat VR1 (pCVR2); test: Electrophysiological and calcium-imaging analysis of HEK293 cells transfected with pCVR2; format: cell-based
[7] = system: water-injected oocytes; test: Two-electrode voltage clamp of water-injected control oocytes: capsaicin, heat, heat plus ruthenium red; format: cell-based, Xenopus
Method: as §1, with “cells). The asterisk indicates a significant difference from water-injected oocytes (T-test, P<0.0005).” for “cells).”
as §2

T1 sequence (O35433 whole entry): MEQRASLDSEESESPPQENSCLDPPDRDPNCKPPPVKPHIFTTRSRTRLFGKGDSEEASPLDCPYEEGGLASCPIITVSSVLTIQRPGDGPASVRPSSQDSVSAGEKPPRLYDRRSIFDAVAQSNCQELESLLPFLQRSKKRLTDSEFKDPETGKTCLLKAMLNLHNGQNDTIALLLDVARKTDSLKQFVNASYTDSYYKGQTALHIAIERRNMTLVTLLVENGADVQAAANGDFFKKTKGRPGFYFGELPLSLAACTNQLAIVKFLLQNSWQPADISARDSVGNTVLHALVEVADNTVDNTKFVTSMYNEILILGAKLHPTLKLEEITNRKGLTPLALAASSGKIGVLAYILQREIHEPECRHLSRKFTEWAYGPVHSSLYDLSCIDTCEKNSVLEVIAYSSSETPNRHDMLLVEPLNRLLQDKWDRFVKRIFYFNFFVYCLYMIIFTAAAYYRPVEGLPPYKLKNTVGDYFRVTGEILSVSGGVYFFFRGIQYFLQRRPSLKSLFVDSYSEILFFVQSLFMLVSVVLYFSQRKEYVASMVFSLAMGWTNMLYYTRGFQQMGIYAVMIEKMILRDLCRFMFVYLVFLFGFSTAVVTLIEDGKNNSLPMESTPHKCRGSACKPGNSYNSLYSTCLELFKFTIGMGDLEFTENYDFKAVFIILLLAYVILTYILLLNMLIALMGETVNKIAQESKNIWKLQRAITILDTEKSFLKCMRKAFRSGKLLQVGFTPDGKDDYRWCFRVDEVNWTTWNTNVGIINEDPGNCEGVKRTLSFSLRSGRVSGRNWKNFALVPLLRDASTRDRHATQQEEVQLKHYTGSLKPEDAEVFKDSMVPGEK

## COc1ccc(CCCOC(Cn2ccnc2)c2ccc(OC)cc2)cc1 (centres unmarked) [SKF 96365]
[1]; SKF 96365 20 μM, VR1-expressing oocytes
  effect on capsaicin-evoked currents: no effect

## COc1cc(CNC(=O)CCCC/C=C/C(C)C)ccc1O [capsaicin]
[2]; capsaicin 1 μM
  mean inward current response ± s.e.m.: 1221±148 nA
[3]; absence of extracellular calcium, n=3
  decrease of response between first and third applications: 4.7±2.3%
[3]; calcium-containing bath solution, n=5
  decrease of response between first and third applications (desensitizing component): 87±4.3%
[4]
  effect of reduced pH on capsaicin response: did not augment
[5]
  activation of VRRP-1: does not appear to be activated
[6]; capsaicin
  response of the encoded protein: not to capsaicin
[1]; VR1-expressing oocytes
  recovery of current response following agonist removal: returned rapidly to baseline
[1]
  Hill coefficient: 2.08
[7]
  response to capsaicin: no response

## Oc1cc2c(cc1O)CN(C(=S)NCCc1ccc(Cl)cc1)CCC2 [capsazepine]
[1]; VR1-expressing oocytes, CaCl2 2 mM in place of BaCl2, read-out: IC50, block of capsaicin-evoked responses
  IC50: 283 nM
[1]; capsazepine 5 μM
  antagonism of responses to resiniferatoxin (50 nM): reversibly antagonized
[1]; capsazepine 10 μM
  block of capsaicin activity (cap; 0.6 μM): reversible

## C=C(C)[C@]12C[C@@H](C)[C@@]34O[C@](Cc5ccccc5)(O[C@@H]1[C@@H]3C=C(COC(=O)Cc1ccc(O)c(OC)c1)C[C@]1(O)C(=O)C(C)=C[C@@H]41)O2 [resiniferatoxin]
[6]; high doses of resiniferatoxin
  response of the encoded protein: responds
[1]
  EC50: 39.1 nM
  Hill coefficient: 1.95
[1]; EC50 comparison in VR1-expressing oocytes
  potency relative to capsaicin: approximately 20 fold
[1]; VR1-expressing oocytes
  recovery of current response following agonist removal: often failed to recover

## N.N.N.N.N.N.N.N.N.N.N.N.N.N.[Cl-].[Cl-].[Cl-].[Cl-].[Cl-].[Cl-].[O-2].[O-2].[Ru+3].[Ru+3].[Ru+4] [ruthenium red]
[2]; heat (50° C.) plus ruthenium red 10 μM
  mean inward current response ± s.e.m.: 243±47 nA
[2]; ruthenium red 10 μM, heat 50° C., VR1-injected oocytes
  inhibition of heat response: 88±2%
[1]; ruthenium red 10 μM
  antagonism of responses to resiniferatoxin (50 nM): reversibly antagonized
  block of capsaicin-evoked responses (cap; 0.6 μM): blocked capsaicin-evoked responses
[7]; ruthenium red 10 μM, n=5
  inhibition of heat response: 21±26%
